Results from patent US20210070748A1, “INHIBITORS OF BRUTONS TYROSINE KINASE” (Pharmacyclics LLC, priority 2015, published 2021).

Key:
Type in all cases: biochemical
LCK = LCK (Homo sapiens, UniProt P06239); assay: Inhibition of a panel of kinases, in vitro HotSpot kinase assay: LCK; conditions: D-compounds panel data; 1 μM ATP; read-out: IC50 LCK
TEC = biological target: T1, TEC (Homo sapiens, UniProt P42680); assay: Inhibition of a panel of kinases, in vitro HotSpot kinase assay: TEC; conditions: D-compounds panel data; 1 μM ATP
T1 sequence (P42680 1-631): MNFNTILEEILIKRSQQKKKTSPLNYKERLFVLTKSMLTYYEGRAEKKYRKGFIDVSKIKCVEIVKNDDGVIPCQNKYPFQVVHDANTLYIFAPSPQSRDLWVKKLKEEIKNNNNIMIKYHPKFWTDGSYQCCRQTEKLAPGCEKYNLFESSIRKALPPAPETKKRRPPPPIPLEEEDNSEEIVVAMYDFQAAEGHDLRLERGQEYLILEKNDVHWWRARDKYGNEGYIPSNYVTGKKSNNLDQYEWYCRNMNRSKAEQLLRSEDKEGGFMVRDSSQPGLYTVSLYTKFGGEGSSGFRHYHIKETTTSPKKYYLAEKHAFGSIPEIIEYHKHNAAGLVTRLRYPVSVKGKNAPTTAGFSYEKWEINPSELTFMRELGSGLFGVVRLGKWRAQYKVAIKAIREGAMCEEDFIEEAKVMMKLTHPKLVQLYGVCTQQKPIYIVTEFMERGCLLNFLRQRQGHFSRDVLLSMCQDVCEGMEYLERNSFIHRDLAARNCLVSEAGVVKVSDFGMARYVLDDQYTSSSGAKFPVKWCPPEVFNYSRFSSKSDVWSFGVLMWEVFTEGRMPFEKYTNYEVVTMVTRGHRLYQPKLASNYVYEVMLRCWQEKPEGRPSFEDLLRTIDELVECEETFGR
Procedure: (§1) The degree of inhibition of a panel of kinases is determined using the in vitro HotSpot kinase assay (purified enzymes, ^33P-ATP, an appropriate substrate and 1 μM ATP).

EGFR = EGFR (Homo sapiens, UniProt P00533); assay: Inhibition of a panel of kinases, in vitro HotSpot kinase assay: EGFR; conditions: D-compounds panel data; 1 μM ATP
Procedure: as §1

ITK = biological target: T2, ITK (Homo sapiens, UniProt Q08881); assay: Inhibition of a panel of kinases, in vitro HotSpot kinase assay: ITK; conditions: D-compounds panel data; 1 μM ATP
T2 sequence (Q08881 1-620): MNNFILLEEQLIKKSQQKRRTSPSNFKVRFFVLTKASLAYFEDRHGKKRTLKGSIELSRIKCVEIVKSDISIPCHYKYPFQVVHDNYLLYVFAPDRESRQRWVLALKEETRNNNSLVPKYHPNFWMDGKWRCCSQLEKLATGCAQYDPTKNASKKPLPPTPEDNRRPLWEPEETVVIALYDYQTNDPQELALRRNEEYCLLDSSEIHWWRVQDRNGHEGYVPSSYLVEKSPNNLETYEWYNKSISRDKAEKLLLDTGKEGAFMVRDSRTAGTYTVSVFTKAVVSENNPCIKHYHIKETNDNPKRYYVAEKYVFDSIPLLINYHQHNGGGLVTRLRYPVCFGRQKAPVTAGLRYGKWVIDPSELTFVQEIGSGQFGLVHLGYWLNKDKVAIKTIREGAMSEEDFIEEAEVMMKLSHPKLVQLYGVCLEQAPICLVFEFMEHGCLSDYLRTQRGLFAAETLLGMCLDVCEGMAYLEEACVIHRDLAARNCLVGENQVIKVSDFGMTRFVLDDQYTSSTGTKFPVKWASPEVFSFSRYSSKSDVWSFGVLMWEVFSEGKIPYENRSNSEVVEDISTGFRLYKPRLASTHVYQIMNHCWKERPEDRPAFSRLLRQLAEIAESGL
Procedure: as §1

BTK-WT = biological target: T3, BTK-WT (Homo sapiens, UniProt Q06187); assay: Btk in vitro inhibitory activity (one of Method A TR-FRET, Method B electrophoretic mobility shift, Method C radiometric filter binding); conditions: D-compounds panel data; read-out: IC50 BTK-WT
T3 construct: purified from insect cells as a full-length construct containing an N-terminal 6X-His tag; His6 (N); made in house; host or cells: insect cells (baculovirus Sf21 in Method B)
T3 sequence (Q06187 whole entry): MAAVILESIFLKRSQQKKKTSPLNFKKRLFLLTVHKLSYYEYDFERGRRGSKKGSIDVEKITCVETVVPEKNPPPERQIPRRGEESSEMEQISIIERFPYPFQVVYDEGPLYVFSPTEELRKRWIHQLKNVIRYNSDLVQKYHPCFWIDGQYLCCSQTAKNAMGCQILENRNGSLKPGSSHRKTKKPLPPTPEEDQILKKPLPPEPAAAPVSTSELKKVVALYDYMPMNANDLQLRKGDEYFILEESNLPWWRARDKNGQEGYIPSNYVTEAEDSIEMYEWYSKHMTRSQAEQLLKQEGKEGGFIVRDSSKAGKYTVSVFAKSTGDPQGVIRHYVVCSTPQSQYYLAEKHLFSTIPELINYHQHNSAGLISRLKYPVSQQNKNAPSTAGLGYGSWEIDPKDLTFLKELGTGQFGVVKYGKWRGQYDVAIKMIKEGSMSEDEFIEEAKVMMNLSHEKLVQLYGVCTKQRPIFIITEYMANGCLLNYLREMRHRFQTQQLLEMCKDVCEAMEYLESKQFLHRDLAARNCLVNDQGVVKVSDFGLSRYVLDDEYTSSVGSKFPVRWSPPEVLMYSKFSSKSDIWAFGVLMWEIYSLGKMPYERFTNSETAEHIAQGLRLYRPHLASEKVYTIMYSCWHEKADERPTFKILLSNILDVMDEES

LCK, sequence (P06239 whole entry): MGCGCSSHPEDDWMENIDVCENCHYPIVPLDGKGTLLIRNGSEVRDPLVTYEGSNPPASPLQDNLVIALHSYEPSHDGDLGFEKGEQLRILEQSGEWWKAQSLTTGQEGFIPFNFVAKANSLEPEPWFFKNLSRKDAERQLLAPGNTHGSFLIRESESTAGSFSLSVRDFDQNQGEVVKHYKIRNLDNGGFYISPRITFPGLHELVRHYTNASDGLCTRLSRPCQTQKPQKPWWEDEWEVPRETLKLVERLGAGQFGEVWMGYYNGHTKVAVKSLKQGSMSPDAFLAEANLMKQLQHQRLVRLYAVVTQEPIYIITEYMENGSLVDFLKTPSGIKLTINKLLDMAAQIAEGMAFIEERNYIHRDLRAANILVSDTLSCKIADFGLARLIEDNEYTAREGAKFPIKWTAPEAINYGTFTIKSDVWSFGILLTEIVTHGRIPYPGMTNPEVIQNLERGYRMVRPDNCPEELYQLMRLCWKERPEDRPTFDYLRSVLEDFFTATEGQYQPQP
EGFR, sequence (P00533 25-1210): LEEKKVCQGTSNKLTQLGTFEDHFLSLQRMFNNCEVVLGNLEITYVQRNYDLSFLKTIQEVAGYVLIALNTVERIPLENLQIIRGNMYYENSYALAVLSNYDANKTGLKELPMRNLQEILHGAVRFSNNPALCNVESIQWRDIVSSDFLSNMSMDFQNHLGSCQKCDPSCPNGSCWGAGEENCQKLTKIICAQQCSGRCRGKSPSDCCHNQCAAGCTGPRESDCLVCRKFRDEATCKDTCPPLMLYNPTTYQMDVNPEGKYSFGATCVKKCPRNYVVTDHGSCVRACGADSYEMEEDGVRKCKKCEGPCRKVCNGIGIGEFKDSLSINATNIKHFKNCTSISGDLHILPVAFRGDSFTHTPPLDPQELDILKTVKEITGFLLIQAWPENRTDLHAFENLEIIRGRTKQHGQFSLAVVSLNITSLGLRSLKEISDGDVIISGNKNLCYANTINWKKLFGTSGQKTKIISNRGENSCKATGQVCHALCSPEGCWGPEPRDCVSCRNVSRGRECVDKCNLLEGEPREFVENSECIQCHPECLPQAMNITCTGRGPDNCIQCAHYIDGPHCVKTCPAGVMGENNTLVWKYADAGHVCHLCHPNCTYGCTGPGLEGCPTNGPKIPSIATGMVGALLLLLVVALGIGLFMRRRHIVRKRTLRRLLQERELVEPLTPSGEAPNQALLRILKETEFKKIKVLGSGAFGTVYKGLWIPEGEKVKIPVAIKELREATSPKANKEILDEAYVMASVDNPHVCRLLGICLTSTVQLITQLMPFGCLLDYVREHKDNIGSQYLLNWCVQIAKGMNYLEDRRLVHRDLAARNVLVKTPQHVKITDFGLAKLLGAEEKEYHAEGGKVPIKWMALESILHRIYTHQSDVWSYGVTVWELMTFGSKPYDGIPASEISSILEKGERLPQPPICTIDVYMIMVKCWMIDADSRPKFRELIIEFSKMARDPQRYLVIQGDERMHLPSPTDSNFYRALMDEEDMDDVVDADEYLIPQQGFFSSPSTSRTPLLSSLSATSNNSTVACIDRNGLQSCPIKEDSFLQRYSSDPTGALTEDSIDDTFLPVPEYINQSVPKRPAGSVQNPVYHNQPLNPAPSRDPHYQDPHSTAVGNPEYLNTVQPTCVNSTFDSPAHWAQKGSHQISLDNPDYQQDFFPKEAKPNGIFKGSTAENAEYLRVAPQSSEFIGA

Compound	IC50 (LCK) [nM]	IC50 (TEC) [nM]	IC50 (EGFR) [nM]	IC50 (ITK) [nM]	IC50 (BTK-WT) [nM]
CC(C)c1ccc(C(=O)N[C@@H]2CCCN(c3cnc(C(N)=O)c(Nc4cnn(C)c4)n3)C2)cc1 [Example D-222, 3-[(1-Methyl-1H-pyrazol-4-yl)amino]-5-[(3R)-3-[4-(propan-2-yl)benzamido]piperidin-1-yl]pyrazine-2-carboxamide]	1000 to 10000	10 to 100	> 10000	> 10000	≤ 10
C[C@@H]1[C@H](NC(=O)c2ccc(C3CC3)cc2)CCCN1c1cnc(C(N)=O)c(Nc2cnn(C)c2)c1 [Example D-207, 5-[(2R,3R)-3-(4-cyclopropylbenzamido)-2-methylpiperidin-1-yl]-3-[(1-methyl-1H-pyrazol-4-yl)amino]pyridine-2-carboxamide]	100 to 1000	100 to 1000	> 10000	1000 to 10000	≤ 10
C[C@@H]1[C@H](NC(=O)c2ccc(C3CC3)cn2)CCCN1c1cnc(C(N)=O)c(Nc2ccc(N3CCN(C)CC3)cc2)n1 [Example D-188, 5-[(2R,3R)-3-(5-cyclopropylpyridine-2-amido)-2-methylpiperidin-1-yl]-3-{[4-(4-methylpiperazin-1-yl)phenyl]amino}pyrazine-2-carboxamide]	100 to 1000	10 to 100	100 to 1000	100 to 1000	≤ 10
C[C@@H]1[C@H](NC(=O)c2ccc(N(C)C)cc2)CCCN1c1cnc(C(N)=O)c(Nc2ccc(C3(C)CCN(C4CCCC4)CC3)cc2)n1 [Example D-183, 3-{[4-(1-cyclopentyl-4-methylpiperidin-4-yl)phenyl]amino}-5-[(2R,3R)-3-[4-(dimethylamino)benzamido]-2-methylpiperidin-1-yl]pyrazine-2-carboxamide]	10 to 100	10 to 100	100 to 1000	10 to 100	≤ 10
Cn1cc(Nc2nc(N3CCC[C@@H](NC(=O)c4ccc(C5CC5)cc4)C3)nnc2C(N)=O)cn1 [Example D-195, 3-[(3R)-3-(4-cyclopropylbenzamido)piperidin-1-yl]-5-[(1-methyl-1H-pyrazol-4-yl)amino]-1,2,4-triazine-6-carboxamide]	100 to 1000	10 to 100	> 10000	100 to 1000	≤ 10
CN1CCN(c2ccc(Nc3nc(N4CCC[C@@H](n5ccc6cc(C7CC7)cc(F)c6c5=O)C4)cnc3C(N)=O)cc2)CC1 [Example D-174, 5-[(3R)-3-(6-cyclopropyl-8-fluoro-1-oxo-1,2-dihydroisoquinolin-2-yl)piperidin-1-yl]-3-{[4-(4-methylpiperazin-1-yl)phenyl]amino}pyrazine-2-carboxamide]	100 to 1000	10 to 100	100 to 1000	100 to 1000	≤ 10
C[C@@H]1[C@H](NC(=O)c2ccc(C3(C(F)(F)F)CC3)cc2)CCCN1c1cnc(C(N)=O)c(Nc2cnn(C)c2)n1 [Example D-221, 3-[(1-Methyl-1H-pyrazol-4-yl)amino]-5-[(2R,3R)-2-methyl-3-{4-[1-(trifluoromethyl)cyclopropyl]benzamido}piperidin-1-yl]pyrazine-2-carboxamide]	100 to 1000	10 to 100	1000 to 10000	1000 to 10000	≤ 10
C[C@@H]1[C@H](NC(=O)c2ccc(C3(O)CCCC3)cc2)CCCN1c1cnc(C(N)=O)c(Nc2cnn(C)c2)n1 [Example D-212, 5-[(2R,3R)-3-[4-(1-hydroxycyclopentyl)benzamido]-2-methylpiperidin-1-yl]-3-[(1-methyl-1H-pyrazol-4-yl)amino]pyrazine-2-carboxamide]	100 to 1000	≤ 10	1000 to 10000	100 to 1000	≤ 10
COc1cc(C(=O)N[C@@H]2CCCN(c3cnc(C(N)=O)c(Nc4cnn(C)c4)n3)[C@@H]2C)ccc1C1CC1 [Example D-231, 5-[(2R,3R)-3-(4-cyclopropyl-3-methoxybenzamido)-2-methylpiperidin-1-yl]-3-[(1-methyl-1H-pyrazol-4-yl)amino]pyrazine-2-carboxamide]	100 to 1000	10 to 100	1000 to 10000	100 to 1000	≤ 10
C[C@@H]1[C@H](NC(=O)c2ccc(N(C)CCO)cc2)CCCN1c1cnc(C(N)=O)c(Nc2cnn(C)c2)n1 [Example D-217, 5-[(2R,3R)-3-{4-[(2-hydroxyethyl)(methyl)amino]benzamido}-2-methylpiperidin-1-yl]-3-[(1-methyl-1H-pyrazol-4-yl)amino]pyrazine-2-carboxamide]	100 to 1000	≤ 10	1000 to 10000	100 to 1000	≤ 10

Now from value to compound:

IC50 (LCK) [nM]	IC50 (TEC) [nM]	IC50 (EGFR) [nM]	IC50 (ITK) [nM]	IC50 (BTK-WT) [nM]	Compound
10 to 100	≤ 10	100 to 1000	100 to 1000	≤ 10	C[C@H]1CC[C@@H](NC(=O)c2ccc(C(C)(C)O)cc2)CN1c1cnc(C(N)=O)c(Nc2cnn(C)c2)n1 [Example D-236, 5-[(2S,5R)-5-[4-(2-hydroxypropan-2-yl)benzamido]-2-methylpiperidin-1-yl]-3-[(1-methyl-1H-pyrazol-4-yl)amino]pyrazine-2-carboxamide]
10 to 100	10 to 100	100 to 1000	100 to 1000	≤ 10	C[C@@H]1[C@H](NC(=O)c2ccc(C3CC3)cc2)CCCN1c1cnc(C(N)=O)c(Nc2cnn(C3CCN(C)CC3)c2)n1 [Example D-185, 5-[(2R,3R)-3-(4-cyclopropylbenzamido)-2-methylpiperidin-1-yl]-3-{[1-(1-methylpiperidin-4-yl)-1H-pyrazol-4-yl]amino}pyrazine-2-carboxamide]
10 to 100	10 to 100	1000 to 10000	100 to 1000	≤ 10	C[C@@H]1[C@H](NC(=O)c2ccc(C(C)(C)C)cc2)CCCN1c1cnc(C(N)=O)c(Nc2ccc(N3CCN(C)CC3)cc2)n1 [Example D-14, 5-[(2R,3R)-3-(4-tert-butylbenzamido)-2-methylpiperidin-1-yl]-3-{[4-(4-methylpiperazin-1-yl)phenyl]amino}pyrazine-2-carboxamide]
10 to 100	≤ 10	100 to 1000	100 to 1000	≤ 10	C[C@@H]1[C@H](NC(=O)c2cnc(C3CC3)cn2)CCCN1c1cnc(C(N)=O)c(Nc2cnn(C)c2)n1 [Example D-205, 5-[(2R,3R)-3-(5-cyclopropylpyrazine-2-amido)-2-methylpiperidin-1-yl]-3-[(1-methyl-1H-pyrazol-4-yl)amino]pyrazine-2-carboxamide]
10 to 100	≤ 10	1000 to 10000	100 to 1000	≤ 10	C[C@@H]1[C@H](NC(=O)c2ccc(C3CC3)cc2)CCCN1c1cnc(C(N)=O)c(Nc2ccc(OC3CCN4CCCC4C3)cc2)n1 (stereo partly drawn) [Example D-211, 5-[(2R,3R)-3-(4-cyclopropylbenzamido)-2-methylpiperidin-1-yl]-3-{[4-(octahydroindolizin-7-yloxy)phenyl]amino}pyrazine-2-carboxamide]
10 to 100	10 to 100	100 to 1000	100 to 1000	≤ 10	C[C@@H]1[C@H](NC(=O)c2ccc(C3CC3)cc2F)CCCN1c1cnc(C(N)=O)c(Nc2ccc(N3CCN(C)C[C@@H]3C)cc2)n1 [Example D-12, 5-[(2R,3R)-3-(4-cyclopropyl-2-fluorobenzamido)-2-methylpiperidin-1-yl]-3-({4-[(2S)-2,4-dimethylpiperazin-1-yl]phenyl}amino)pyrazine-2-carboxamide]
